Reference: ChEMBL document CHEMBL4351028, “Benzoyl indoles with metabolic stability as reversal agents for ABCG2-mediated multidrug resistance” (Eur J Med Chem, 2019)
Calls of active or inactive are those of the source. The calls are words filed in the database; no cut-off is given here.

Experiments:
NCI-H460 [1] = assay: Cytotoxicity against human NCI-H460 cells assessed as inhibition of cell viability incubated for 2 hrs by MTT assay; type: cell-based; conditions: NCI-H460, 2 h
[2] = Cytotoxicity against human NCI-H460/MX20 cells assessed as inhibition of cell viability incubated for 2 hrs by MTT assay; type: cell-based; conditions: NCI-H460/MX20, 2 h
NCI-H460 [3] = assay: Cytotoxicity against human NCI-H460 cells assessed as concentration that causes inhibition of cell viability by <=20% incubated for 24 hrs by MTT assay; type: cell-based; conditions: nci-h460, 24 h
[4] = Cytotoxicity against human NCI-H460/MX20 cells assessed as concentration that causes inhibition of cell viability by <=20% incubated for 24 hrs by MTT assay; type: cell-based
[5] = target: T1, Broad substrate specificity ATP-binding cassette transporter ABCG2 (Homo sapiens, UniProt Q9UNQ0); assay: (§1) Reversal of ABCG2-mediated multidrug resistance in human NCI-H460/MX20 cells assessed as potentiation of mitoxantrone-induced cytotoxicity by measuring inhibition of cell proliferation at 25 uM pretreated for 2 hrs followed by mitoxantrone addition and measured after 44 hrs by MTT assay (reference value: 24 +/- 3%); type: cell-based; conditions: for inhibition (INH): 25 µM
T1 sequence (Q9UNQ0 whole entry): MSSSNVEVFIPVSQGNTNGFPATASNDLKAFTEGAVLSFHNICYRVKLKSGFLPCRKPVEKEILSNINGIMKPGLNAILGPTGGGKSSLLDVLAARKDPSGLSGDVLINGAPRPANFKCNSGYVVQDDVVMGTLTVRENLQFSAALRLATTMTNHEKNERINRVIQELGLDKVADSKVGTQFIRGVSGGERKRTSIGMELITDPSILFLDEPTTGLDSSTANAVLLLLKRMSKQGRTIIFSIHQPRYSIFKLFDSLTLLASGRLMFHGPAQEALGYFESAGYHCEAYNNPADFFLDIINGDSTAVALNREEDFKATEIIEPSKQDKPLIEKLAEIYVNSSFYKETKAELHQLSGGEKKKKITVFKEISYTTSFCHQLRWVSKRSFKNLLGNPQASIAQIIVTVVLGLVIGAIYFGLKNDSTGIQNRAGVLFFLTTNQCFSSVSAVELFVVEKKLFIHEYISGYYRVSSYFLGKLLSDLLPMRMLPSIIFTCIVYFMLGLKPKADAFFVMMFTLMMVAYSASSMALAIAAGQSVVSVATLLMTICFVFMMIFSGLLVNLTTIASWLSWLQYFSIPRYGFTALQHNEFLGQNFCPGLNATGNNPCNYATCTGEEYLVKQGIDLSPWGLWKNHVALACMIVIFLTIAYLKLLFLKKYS

[6] = target: T1, Broad substrate specificity ATP-binding cassette transporter ABCG2; assay: Reversal of ABCG2-mediated multidrug resistance in human NCI-H460/MX20 cells assessed as potentiation of mitoxantrone-induced cytotoxicity by measuring inhibition of cell proliferation pretreated for 2 hrs followed by mitoxantrone addition and measured after 44 hrs by MTT assay; type: cell-based
[7] = target: T1, Broad substrate specificity ATP-binding cassette transporter ABCG2; assay: as §1, with “10” for “25”; type: cell-based; conditions: for inhibition (INH): 10 µM
[8] = target: T1, Broad substrate specificity ATP-binding cassette transporter ABCG2; assay: as §1, with “1” for “25”; type: cell-based
[9] = Metabolic stability in human liver microsomes assessed as compound remaining at 100 uM incubated for 1 hr by HPLC analysis; type: ADME, Microsome; conditions: read-out: Stability
HEK293 [10] = assay: Reversal of ABCG2 482-T7 mutant (unknown origin) expressed in HEK293 cells-mediated multidrug resistance assessed as potentiation of mitoxantrone-induced cytotoxicity at 5 uM pretreated for 2 hrs followed by mitoxantrone addition and measured after 44 hrs by MTT assay; type: cell-based; conditions: Homo sapiens
HEK293 [11] = assay: Reversal of ABCG2 482-G2 mutant (unknown origin) expressed in HEK293 cells-mediated multidrug resistance assessed as potentiation of mitoxantrone-induced cytotoxicity at 5 uM pretreated for 2 hrs followed by mitoxantrone addition and measured after 44 hrs by MTT assay; type: cell-based; conditions: Homo sapiens

Structure (SMILES): O=C1c2c(O)ccc(O)c2C(=O)c2c(NCCNCCO)ccc(NCCNCCO)c21 [MITOXANTRONE]
- IC50 (NCI-H460 [1]): 0.36 µM
- IC50 [2]: 40.6 µM

Structure (SMILES): O=C(c1ccccc1O)c1c[nH]c2ccc(O)cc12
- IC50 (NCI-H460 [1]; read-out: IC50): > 100 µM
- IC50 [2]: > 100 µM
- Activity (NCI-H460 [3]): 25 µM
- Activity [4]: 25 µM
- inhibition at 25 µM [5]: > 87%
- inhibition (INH) [6]: Dose-dependent effect

Structure (SMILES): COc1ccc(C(=O)c2c[nH]c3c(OC)cccc23)c(OC)c1
- IC50 (NCI-H460 [1]; read-out: IC50): > 100 µM
- IC50 [2]: > 100 µM
- Activity (NCI-H460 [3]): 10 µM
- Activity [4]: 10 µM
- inhibition (INH) [7]: Active

Structure (SMILES): O=C(c1ccc(O)cc1)c1c[nH]c2cccc(O)c12
- IC50 (NCI-H460 [1]; read-out: IC50): > 100 µM
- IC50 [2]: > 100 µM
- Activity (NCI-H460 [3]): 25 µM
- Activity [4]: 25 µM
- inhibition at 25 µM [5]: > 87%
- inhibition (INH) [6]: Dose-dependent effect

Structure (SMILES): O=C(c1ccc(O)cc1)c1c[nH]c2ccc(O)cc12
- IC50 (NCI-H460 [1]; read-out: IC50): > 100 µM
- IC50 [2]: > 100 µM
- Activity (NCI-H460 [3]): 25 µM
- Activity [4]: 25 µM
- inhibition (INH) [5]: Active

Structure (SMILES): O=C(c1cc(O)c(O)c(O)c1)c1c[nH]c2ccc(O)cc12
- IC50 (NCI-H460 [1]; read-out: IC50): > 100 µM
- IC50 [2]: > 100 µM
- Activity (NCI-H460 [3]): 25 µM
- Activity [4]: 25 µM

Structure (SMILES): COc1ccc(C(=O)c2c(OC)ccc3cc(OC)ccc23)c(OC)c1
- IC50 (NCI-H460 [1]; read-out: IC50): 86.2 µM
- IC50 [2]: 84 µM
- Activity (NCI-H460 [3]): 10 µM
- Activity [4]: 10 µM
- inhibition (INH) [5]: Not Active

Structure (SMILES): COc1ccc2[nH]cc(C(=O)c3cc(OC)c(OC)c(OC)c3)c2c1
- inhibition (INH) [8]: Active
- IC50 (NCI-H460 [1]; read-out: IC50): 4.9 µM
- IC50 [2]: 5.82 µM
- Activity (NCI-H460 [3]): 1 µM
- Activity [4]: 1 µM

Structure (SMILES): O=C(c1ccc(O)cc1O)c1c[nH]c2cccc(O)c12
- IC50 (NCI-H460 [1]; read-out: IC50): > 100 µM
- IC50 [2]: > 100 µM
- Activity (NCI-H460 [3]): 25 µM
- Activity [4]: 25 µM
- inhibition at 25 µM [5]: > 87%
- inhibition (INH) [6]: Dose-dependent effect

Structure (SMILES): COc1ccc(C(=O)c2ccc3[nH]cc(C(=O)c4ccc(OC)cc4OC)c3c2OC)c(OC)c1
- IC50 (NCI-H460 [1]; read-out: IC50): > 100 µM
- IC50 [2]: 68.7 µM
- Activity (NCI-H460 [3]): 25 µM
- Activity [4]: 25 µM
- inhibition at 25 µM [5]: > 87%
- inhibition (INH) [6]: Dose-dependent effect

Structure (SMILES): COc1ccc(C(=O)c2c[nH]c3ccc(OC)cc23)c(OC)c1
- IC50 (NCI-H460 [1]; read-out: IC50): > 100 µM
- IC50 [2]: > 100 µM
- Activity (NCI-H460 [3]): 25 µM
- Activity [4]: 25 µM
- inhibition (INH) [5]: Active

Structure (SMILES): COc1ccc(C(=O)c2c[nH]c3cccc(OC)c23)c(OC)c1
- IC50 (NCI-H460 [1]; read-out: IC50): > 100 µM
- IC50 [2]: > 100 µM
- Activity (NCI-H460 [3]): 25 µM
- Activity [4]: 25 µM
- inhibition (INH) [5]: Active

Structure (SMILES): COc1ccc2[nH]cc(C(=O)c3ccccc3OC)c2c1
- inhibition (INH) [8]: Active
- IC50 (NCI-H460 [1]; read-out: IC50): 46.2 µM
- IC50 [2]: 61.9 µM
- Activity (NCI-H460 [3]): 1 µM
- Activity [4]: 1 µM

Structure (SMILES): O=C(c1c(O)cccc1O)c1c[nH]c2ccc(O)cc12
- IC50 (NCI-H460 [1]; read-out: IC50): > 100 µM
- IC50 [2]: > 100 µM
- Activity (NCI-H460 [3]): 10 µM
- Activity [4]: 10 µM

Structure (SMILES): O=C(c1cc(O)c(O)c(O)c1)c1c[nH]c2cccc(O)c12
- IC50 (NCI-H460 [1]; read-out: IC50): > 100 µM
- IC50 [2]: > 100 µM
- Activity (NCI-H460 [3]): 25 µM
- Activity [4]: 25 µM

Structure (SMILES): O=C(c1cccc(O)c1)c1c[nH]c2ccc(O)cc12
- IC50 (NCI-H460 [1]; read-out: IC50): > 100 µM
- IC50 [2]: > 100 µM
- Activity (NCI-H460 [3]): 25 µM
- Activity [4]: 25 µM

Structure (SMILES): COc1ccc(C(=O)c2c[nH]c3cccc(OC)c23)cc1
- IC50 (NCI-H460 [1]; read-out: IC50): > 100 µM
- IC50 [2]: > 100 µM
- Activity (NCI-H460 [3]): 10 µM
- Activity [4]: 10 µM
- inhibition (INH) [7]: Active

Structure (SMILES): COc1ccc2c3c([nH]c2c1)[C@H](CC(C)C)N1C(=O)[C@H](CCC(=O)OC(C)(C)C)NC(=O)[C@@H]1C3
- remaining at 1 h, 100 µM [9]: 23%
- Activity (HEK293 [10]): Active
- Activity (HEK293 [11]): Active

Structure (SMILES): COc1cc(C(=O)c2c[nH]c3cccc(OC)c23)cc(OC)c1OC
- inhibition (INH) [8]: Active
- IC50 (NCI-H460 [1]; read-out: IC50): > 100 µM
- IC50 [2]: > 100 µM
- Activity (NCI-H460 [3]): 1 µM
- Activity [4]: 1 µM

Structure (SMILES): O=C(c1ccc(O)cc1)c1ccc2[nH]cc(C(=O)c3ccc(O)cc3)c2c1O
- IC50 (NCI-H460 [1]; read-out: IC50): > 100 µM
- IC50 [2]: > 100 µM
- Activity (NCI-H460 [3]): 25 µM
- Activity [4]: 25 µM

Structure (SMILES): COc1cccc(C(=O)c2c[nH]c3ccc(OC)cc23)c1
- IC50 (NCI-H460 [1]; read-out: IC50): > 100 µM
- IC50 [2]: 53.2 µM
- Activity (NCI-H460 [3]): 10 µM
- Activity [4]: 10 µM
- inhibition at 10 µM [7]: > 87%
- inhibition (INH) [6]: Dose-dependent effect

Structure (SMILES): COc1ccc2[nH]cc(C(=O)c3c(OC)cccc3OC)c2c1
- inhibition (INH) [8]: Active
- IC50 (NCI-H460 [1]; read-out: IC50): > 100 µM
- IC50 [2]: > 100 µM
- Activity (NCI-H460 [3]): 1 µM
- Activity [4]: 1 µM

Structure (SMILES): O=C(c1ccc(O)cc1O)c1c[nH]c2ccc(O)cc12
- IC50 (NCI-H460 [1]; read-out: IC50): > 100 µM
- IC50 [2]: > 100 µM
- Activity (NCI-H460 [3]): 25 µM
- Activity [4]: 25 µM
- inhibition (INH) [5]: Active

Structure (SMILES): O=C(c1ccc(O)cc1O)c1c[nH]c2c(O)cccc12
- IC50 (NCI-H460 [1]; read-out: IC50): > 100 µM
- IC50 [2]: > 100 µM
- Activity (NCI-H460 [3]): 10 µM
- Activity [4]: 10 µM
